Among the data in US20240034736A1, “HSD17B13 INHIBITORS AND USES THEREOF” (FL2022-001, Inc., priority 2020, published 2024) are IC50 and inhibition values, retold here.

Each structure is given as a SMILES string.

Chain of Recombinant human HSD17B13 enzyme (Q7Z5P4 20-300): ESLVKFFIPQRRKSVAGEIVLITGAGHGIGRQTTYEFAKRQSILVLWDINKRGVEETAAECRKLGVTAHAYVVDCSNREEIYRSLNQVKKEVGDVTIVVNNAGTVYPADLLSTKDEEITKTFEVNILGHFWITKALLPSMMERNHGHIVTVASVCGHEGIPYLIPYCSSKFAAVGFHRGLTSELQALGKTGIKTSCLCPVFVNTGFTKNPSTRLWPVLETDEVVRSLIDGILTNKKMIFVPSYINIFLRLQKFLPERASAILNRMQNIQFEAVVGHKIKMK

One test concerns the target Recombinant human HSD17B13 enzyme (Homo sapiens (Human), UniProt Q7Z5P4). As to the kind of experiment: HSD17b13 NAD(P)H-Glo Biochemical Assay. To be noted: 50 uM estradiol, 1 mM NAD+; read-out: HSD17β13 IC50. The protocol: Recombinant human HSD17B13 enzyme. Substrate: estradiol (Sigma β-Estradiol E8875), 100 mM in DMSO. […] Assay buffer final concentration: 20 mM Tris pH7.4 with 0.002% Tween-20 and 0.02% BSA. […] Enzymatic activity detected by NAD(P)H-Glo™ Detection System (Promega G9062).
Inhibitor compounds were serially diluted in DMSO and then further diluted in assay buffer to a 10× concentration consisting of 1% DMSO.
HSD17b13 enzyme was diluted in 1× assay buffer to the desired enzyme concentration based on the specific activity of the enzyme lot. 20 uL of diluted enzyme was added to each well along with 2.5 uL of 10× inhibitor solution. Assay plate was incubated at RT for 20 minutes, and then 2.5 uL of a 10× substrate/cofactor mix was added to each well for a final concentration of 50 uM estradiol and 1 mMNAD+. Assay plate was incubated at 37° C. for 3 hours. NAD(P)H-Glo™ Detection System reagents were prepared according to manufacturer's specifications, and 25 uL was added to each well. After incubating for 1 hour at RT, luminescence was measured.
A word on the IC50: it is the point on the concentration scale where inhibition reaches its midpoint. Turning to `Oc1ccc(-c2cc3cnn(-c4cc(O)c(F)c(F)c4)c3cc2Cl)cc1Cl` [Compound 4.16, 5-(6-Chloro-5-(3-chloro-4-hydroxyphenyl)-1H-indazol-1-yl)-2,3-difluorophenol], the IC50 lay in the range of 100 to 1000 nM.
The same measure, in the same setting: the same measure for `CN(c1ccc2c(c1)c(C(=O)O)nn2-c1cc(C(F)(F)F)c(F)c(O)c1F)C1CCOCC1` [Compound 19.89, 1-(2,4-Difluoro-3-hydroxy-5-(trifluoromethyl)phenyl)-5-(methyl(tetrahydro-2H-pyran-4-yl)amino)-1H-indazole-3-carboxylic Acid]: 1000 to 30000 nM; for `CS(=O)(=O)N1CCC(C#N)(c2ccc3c(cnn3-c3cc(O)c(F)c(F)c3)c2)CC1` [Compound 28.04, 4-(1-(3,4-Difluoro-5-hydroxy-phenyl)-1H-indazol-5-yl)-1-(methylsulfonyl)piperidine-4-carbonitrile]: 1000 to 30000 nM.
On the same count and under the same terms, the same measure for `CS(=O)(=O)N1CC2(CN(c3ccc4c(cnn4-c4cc(O)c(F)c(F)c4)c3)C2)C1` [Compound 21.27, 2,3-Difluoro-5-(5-(6-(methyl-sulfonyl)-2,6-diazaspiro[3.3]-heptan-2-yl)-1H-indazol-1-yl)phenol]: 100 to 1000 nM; for `CC1(C)CC=C(c2cc3cnn(-c4cc(O)c(F)c(C(F)(F)F)c4)c3cc2F)CC1` [Compound 18, 5-(5-(4,4-Dimethylcyclohex-1-en-1-yl)-6-fluoro-1H-indazol-1-yl)-2-fluoro-3-(trifluoromethyl)phenol]: 100 to 1000 nM; for `Cc1c(N2CCN(S(C)(=O)=O)CC2)ccc2c1cnn2-c1cc(O)c(F)c(F)c1` [Compound 21.14, 2,3-Difluoro-5-(4-methyl-5-(4-(methylsulfonyl)piperazin-1-yl)-1H-indazol-1-yl)phenol]: 1000 to 30000 nM.
On the same count and under the same terms, the same measure for `Oc1ccc(-c2cc3cnn(-c4cc(O)c(F)c(F)c4)c3cc2Cl)c(Cl)c1` [Compound 4.17, 5-(6-Chloro-5-(2-chloro-4-hydroxyphenyl)-1H-indazol-1-yl)-2,3-difluorophenol]: 100 to 1000 nM; for `Cc1nn(-c2cc(O)c(F)c(C(F)(F)F)c2)c2cnc(N3CCOCC34CC4)cc12` [Compound 19.85, 2-Fluoro-5-(3-methyl-5-(7-oxa-4-azaspiro[2.5]octan-4-yl)-1H-pyrazolo[3,4-c]pyridin-1-yl)-3-(trifluoromethyl)phenol]: less than 100 nM; for `Oc1ccc(-c2ccc3c(cnn3-c3cc(O)c(F)c(F)c3F)c2)cc1Cl` [Compound 1.05, 5-(5-(3-Chloro-4-hydroxyphenyl)-1H-indazol-1-yl)-2,3,4-trifluorophenol]: 100 to 1000 nM.
For the molecule `Oc1cc(-n2ncc3cc(-c4ccc(O)c(Cl)c4)ccc32)ccc1F` [Compound 4, 2-Chloro-4-(1-(4-fluoro-3-hydroxyphenyl)-1H-indazol-5-yl)phenol], the IC50 was 100 to 1000 nM.
Still for that read-out and setting: the result for `Oc1cc(-n2ncc3cc(-c4ccc(OC(F)(F)F)cc4Cl)ccc32)ccc1F` [Compound 5.06, 5-(5-(2-Chloro-4-(trifluoromethoxy)phenyl)-1H-indazol-1-yl)-2-fluorophenol] reads 100 to 1000 nM; that for `Cc1cc(O)ccc1-c1ccc2c(cnn2-c2ccc(F)c(O)c2)c1` [Compound 5.19, 2-Fluoro-5-(5-(4-hydroxy-2-methylphenyl)-1H-indazol-1-yl)phenol], 100 to 1000 nM; that for `Oc1cc(-n2ncc3cc(-c4ccc(Cl)c(O)c4)ccc32)ccc1F` [Compound 5.01, 2-Chloro-5-(1-(4-fluoro-3-hydroxyphenyl)-1H-indazol-5-yl)phenol], 100 to 1000 nM.
`CS(=O)(=O)N1CCN(c2cc3cnn(-c4cc(O)c(F)c(Cl)c4)c3cc2F)CC1` [Compound 19.02, 3-Chloro-2-fluoro-5-(6-fluoro-5-(4-(methylsulfonyl)piperazin-1-yl)-1H-indazol-1-yl)phenol]: the 50% inhibitory concentration (IC50) was 100 to 1000 nM.
The same measure, in the same setting: the same measure for `CNc1c(-n2nc(Cl)c3cc(N(C)C4CCOCC4)ccc32)cc(C(F)(F)F)c(F)c1O` [Compound 19.91, 3-(3-Chloro-5-(methyl(tetrahydro-2H-pyran-4-yl)amino)-1H-indazol-1-yl)-6-fluoro-2-(methylamino)-5-(trifluoromethyl)phenol]: 100 to 1000 nM; for `Oc1cc(-n2ncc3cc(-c4ccc(O)c(Cl)c4)ccc32)cc(C(F)(F)F)c1` [Compound 3.04, 2-Chloro-4-(1-(3-hydroxy-5-(trifluoromethyl)phenyl)-1H-indazol-5-yl)phenol]: 100 to 1000 nM.
With `CS(=O)(=O)N1CCN(c2cc3cn(-c4cc(F)c(F)c(O)c4F)nc3cn2)CC1` [Compound 19.30, 2,3,6-Trifluoro-5-(5-(4-(methylsulfonyl)piperazin-1-yl)-2H-pyrazolo[3,4-c]pyridine-2-yl)phenol], the IC50 fell in the range of 100 to 1000 nM.
Still for that read-out and setting: the same measure for `CS(=O)(=O)N1CCN(c2cc3cnn(-c4cc(O)cc(OC(F)(F)F)c4)c3cn2)CC1` [Compound 19.12, 3-(5-(4-(Methylsulfonyl)piperazin-1-yl)-1H-pyrazolo[3,4-c]pyridine-1-yl)-5-(trifluoromethoxy)phenol]: 1000 to 30000 nM.
Same read-out and setting: the result for `CS(=O)(=O)N1CCN(c2cc3cnn(-c4cc(O)c(F)c(C(F)(F)F)c4)c3nn2)CC1` [Compound 28.08, 2-Fluoro-5-(5-(4-(methyl-sulfonyl)piperazin-1-yl)-1H-pyrazolo[3,4-c]pyridazin-1-yl)-3-(trifluoromethyl)phenol] reads 1000 to 30000 nM; that for `O=S(=O)(CC1CC1)N1CCN(c2cc3cnn(-c4cc(O)c(F)c(F)c4)c3cc2Cl)CC1` [Compound 21.38, 5-(6-Chloro-5-(4-((cycloprop-ylmethyl)sulfonyl)piperazin-1-yl)-1H-indazol-1-yl)-2,3-difluorophenol], 100 to 1000 nM; that for `Cc1nn(-c2cc(C(F)(F)F)c(F)c(O)c2F)c2ccc(N(C)C3CCOCC3)c(F)c12` [Compound 19.101, 2,6-Difluoro-3-(4-fluoro-3-methyl-5-(methyl(tetrahydro-2H-pyran-4-yl)amino)-1H-indazol-1-yl)-5-(trifluoromethyl)phenol], 100 to 1000 nM.
Same read-out and setting: the same measure for `CS(=O)(=O)N1CCN(c2cc3cnn(-c4cc(O)c(F)c(C(F)(F)F)c4)c3cn2)CC1` [Compound 21.41, 2-Fluoro-5-(5-(4-(methyl-sulfonyl)piperazin-1-yl)-1H-pyrazolo[3,4-c]pyridine-1-yl)-3-(trifluoromethyl)phenol]: 100 to 1000 nM.
Consider `CC1(C)CN(S(C)(=O)=O)CCN1c1ccc2c(cnn2-c2cc(O)c(F)c(F)c2)c1` [Compound 21.30, 5-(5-(2,2-Dimethyl-4-(methyl-sulfonyl)piperazin-1-yl)-1H-indazol-1-yl)-2,3-difluoro-phenol], for which the IC50 was 1000 to 30000 nM.
The same measure, in the same setting: the result for `CNc1nn(-c2cc(C(F)(F)F)c(F)c(O)c2F)c2ccc(N(C)C3CCOCC3)cc12` [Compound 19.106, 2,6-Difluoro-3-(5-(methyl(tetrahydro-2H-pyran-4-yl)amino)-3-(methylamino)-1H-indazol-1-yl)-5-(trifluoromethyl)phenol] reads 100 to 1000 nM.
Regarding `Cc1nn(-c2cc(C(F)(F)F)c(F)c(O)c2F)c2cc(F)c(N3CCN(S(C)(=O)=O)CC34CC4)cc12` [Compound 19.100, 2,6-Difluoro-3-(6-fluoro-3-methyl-5-(7-(methylsulfonyl)-4,7-diazaspiro[2.5]octan-4-yl)-1H-indazol-1-yl)-5-(trifluoromethyl)phenol], the IC50 was less than 100 nM.
Still for that read-out and setting: the same measure for `Oc1cnc(-c2ccc3c(cnn3-c3cc(O)c(F)c(F)c3)c2)nc1` [Compound 16.02, 2-(1-(3,4-Difluoro-5-hydroxyphenyl)-1H-indazol-5-yl)pyrimidin-5-ol]: 1000 to 30000 nM; for `Cc1nn(-c2cc(O)c(F)c(C(C)(F)F)c2)c2cnc(N3CCOCC34CC4)cc12` [Compound 19.98, 3-(1,1-Difluoroethyl)-2-fluoro-5-(3-methyl-5-(7-oxa-4-azaspiro[2.5]octan-4-yl)-1H-pyrazolo[3,4-c]pyridin-1-yl)phenol]: 100 to 1000 nM; for `COCCOC1CCN(c2cc3c(C)nn(-c4cc(C(F)(F)F)c(F)c(O)c4F)c3cn2)CC1` [Compound 19.58, 2,6-Difluoro-3-(5-(4-(2-methoxyethoxy)piperidin-1-yl)-3-methyl-1H-pyrazolo[3,4-c]pyridin-1-yl)-5-(trifluoromethyl)phenol]: less than 100 nM.

The same test, now with this note: read-out: HSD17β13 inhibition at 10 uM.
What is called inhibition is the change of the read-out against control, counted positive when it falls. As for `CNC(=O)c1cc(-n2nc(C)c3cc(N4CCOCC45CC5)ncc32)cc(O)c1F` [Compound 19.122, 2-Fluoro-3-hydroxy-N-methyl-5-(3-methyl-5-(7-oxa-4-azaspiro[2.5]octan-4-yl)-1H-pyrazolo[3,4-c]pyridin-1-yl)benzamide], the inhibition at 10 µM is 20%.
In the case of `Cc1nn(-c2cccc(O)c2C#N)c2cnc(N(C)C3CCOCC3)cc12` [Compound 19.120, 2-Hydroxy-6-(3-methyl-5-(methyl(tetrahydro-2H-pyran-4-yl)amino)-1H-pyrazolo[3,4-c]pyridin-1-yl)benzonitrile], the inhibition at 10 µM was found to be 25%.
Still for that read-out and setting: the same measure for `Cc1nc2cc(N3CCOCC34CC4)ncc2n1-c1cc(C(F)(F)F)c(F)c(O)c1F` [Compound 21.63, 2,6-Difluoro-3-(2-methyl-6-(7-oxa-4-azaspiro[2.5]octan-4-yl)-3H-imidazo[4,5-c]pyridin-3-yl)-5-(trifluoromethyl)phenol]: less than 20%.

Still in this test, the particulars now being: read-out: HSD17β13 inhibition at 30 uM.
Turning to `Cc1nn(-c2cc(O)ccc2C#N)c2cnc(N(C)C3CCOCC3)cc12` [Compound 19.61, 4-Hydroxy-2-(3-methyl-5-(methyl(tetrahydro-2H-pyran-4-yl)amino)-1H-pyrazolo[3,4-c]pyridin-1-yl)benzonitrile], the inhibition at 30 µM stood at 55%.
